Results published in patent US6635437B2, “Compounds, compositions and methods for generating chemiluminescence with phosphatase enzymes” (Lumigen, Inc., priority 1996, dated 2003).

Legend:
[1] = system: alkaline phosphatase (AP); assay: Chemiluminescent detection of alkaline phosphatase with acridan phosphate and surfactant enhancer; format: biochemical; conditions: 0.66 mM 5, 0.2 M 2-methyl-2-amino-1-propanol pH 9.6, 0.5 mg/mL Enhancer A; 10^−13 mol AP, 25° C.
[2] = system: alkaline phosphatase (AP); assay: Chemiluminescent detection of alkaline phosphatase with acridan phosphate and cationic aromatic compound (CAC); format: biochemical
AP-labeled antibody = assay: Western blot assay with compound 5 and lucigenin; conditions: 0.66 mM 5, 64 μM lucigenin, 0.1 M tris pH 8.8; PVDF membrane
From the text: A composition of the present invention were used to detect and quantify a protein, human transferrin in a Western blot with an AP-labeled antibody on a polyvinylidene difluoride (PVDF) membrane. Dilutions of transferrin containing from 5000, 1000, 180, 30 and 5 pg, respectively, of protein were electrophoresed and transferred to PVDF membranes (Millipore, Bedford, Mass.). The transferrin bands were blocked with and then reacted sequentially with goat anti-human transferrin and rabbit anti-goat-AP conjugate. The membranes were soaked briefly with reagents comprising 0.1 M tris buffer, pH 8.8 containing 0.88 mM MgCl2, 0.66 mM compound 5 and 64 μM lucigenin. The membranes were placed between transparent plastic sheets and exposed to X-ray film. The bands for human transferrin were detected after 10 min with a 2.5 min exposure. The light produced using this composition led to intense emission which could be imaged for several hours.
Similar results were obtained using nitrocellulose blotting membrane instead of PVDF membrane.

## CN1c2ccccc2C(=C(OP(=O)([O-])[O-])Sc2ccccc2)c2ccccc21.[Na+].[Na+] [Compound 5, 9-(Phenylthiophosphoryloxymethylidene)-10-methylacridan, disodium salt]
[1]
  chemiluminescence on reaction with AP: easily measurable blue chemiluminescence
  time to maximum chemiluminescence intensity: 2 min
[2]; 0.66 mM 5, 6.4 μM lucigenin, 1 mg/mL SDS, 0.01 mg/mL Na2SO3, 0.033% TWEEN 20, tris pH 8.8, 8×10^−16 mol AP, 25° C.
  time to maximum chemiluminescence intensity: 2 min
[2]; 21 mM CAC in DMSO diluted 1:1000 into compound 5 in 0.1 M tris pH 8.8, 4×10^−16 mol AP, room temperature
  S at 36 min (plateau intensity): 34.7
AP-labeled antibody
  period for which emission could be imaged: several hours
